Reference: article PMC6162817 (Toxins, 2018)
Where “and” joins values, the source holds several entries; their conditions need not be identical. Equal entries are not always repeated. Residues, ends and D or L forms follow the SMILES beside them. No end group written: not given here.

Legend:
[1] = biological target: RTA depurination activity on yeast ribosomes (Ricinus communis, UniProt P02879); assay: biochemical; assay type: biochemical; settings: for IC50: Yeast Ribosome IC50
[2] = biological target: RTA depurination activity on rat liver ribosomes (Ricinus communis, UniProt P02879); assay: biochemical; assay type: biochemical
[3] = biological target: RTA–yeast ribosome interaction (Ricinus communis, UniProt P02879); assay type: binding

| Molecule | IC50 [1] | IC50 [2] [µM] | inhibition of ribosome binding to RTA [3] [%] | Imax (maximal inhibition), yeast ribosome [1] | Imax (maximal inhibition), rat ribosome [2] |
| --- | --- | --- | --- | --- | --- |
| CC(C)C[C@H](NC(=O)CN)C(=O)N[C@@H](Cc1ccccc1)C(=O)N[C@@H](CC(=O)O)C(=O)O [P4, G112LFD115] (H-GLFD-OH) | 102 ± 45 µM | – | – | – | – |
| DDDMGFGLFD [P10] | 7.9 ± 1.7 µM | 83 ± 18 | – | – | – |
| DDMGFGLFD [P9] | 15 ± 1.5 µM | 142 ± 61 | – | – | – |
| DMGFGLFD [P8, D108MGFGLFD115] | 23 ± 4.4 µM | 267 ± 80 | – | – | – |
| FGLFD [P5, F111GLFD115] | 121 ± 44 µM | – | – | – | – |
| GFGLFD [P6, G110FGLFD115] | 63 ± 13 µM | – | < 100 | – | – |
| MGFGLFD [P7, M109GFGLFD115] | 34 ± 9.5 µM | – | – | – | – |
| SDDDMGFGLFD [P11] | 5 µM and 4.7 µM | 30.8 ± 6.3 | – | 90% and 89.7 ± 3.0% | 90% and 89.4 ± 4.2% |
